Experimental data from US4912133A, “BU-3862T antitumor antibiotic” (priority 1988, dated 1990).
In brackets after ≈: the same amount, converted by molar mass. Read-outs that look alike come from different tables or passages of the source.

Legend:
[1] = system: B16-F10 (murine melanoma) cells; test: in vitro cytotoxicity against B16-F10 (neutral red staining, 72 hours); assay type: cell-based; conditions: Mus musculus
Protocol: (§1) BU-3862T and diacetyl-, dihydro- and tetrahydro-BU-3862T were tested for in vitro cytotoxicity against several murine and human tumor cell lines and/or for in vivo antitumor activity in mice. […] B16-F10 (murine melanoma), P388 (murine leukemia), L1210 (murine leukemia) and Moser (human colorectal carcinoma) cells were grown to the logarithmic phase in enriched Eagle minimum essential medium (MEM) supplemented with fetal calf serum (FCS, 10%) and kanamycin (60 mcg/ml), and HCT-116 (human colon carcinoma) cells in Maccoy's 5A medium supplemented with FCS (10%), penicillin (100 u/ml) and streptomycin (100 mcg/ml), harvested and inoculated into wells of the 96- or 24-well tissue culture plate with test materials at the concentrations of 1.5×10^5, 1.2×10^4,1.2×10^4, 2.5×10^5 and 3.0×10^5 cells/ml, respectively. They were incubated at 37° C. in humidified atmosphere of 5% CO2 and 95% air for 72 hours. The cytotoxic activities against B16-F10, Moser and HCT-116 cells were colorimetrically determined at 540 nm after staining viable cells with 0.006% neutral red solution. On the other hand, the cytotoxic activities against P388 and L1210 cells were determined by counting the number of viable cells.

[2] = system: P388 (murine leukemia) cells; test: in vitro cytotoxicity against P388 (viable cell count, 72 hours); assay type: cell-based; conditions: Mus musculus; P388, 72 hours
Protocol: as §1

[3] = system: L1210 (murine leukemia) cells; test: in vitro cytotoxicity against L1210 (viable cell count, 72 hours); assay type: cell-based; conditions: Mus musculus; L1210, 72 hours
Protocol: as §1

[4] = system: HCT-116 (human colon carcinoma) cells; test: in vitro cytotoxicity against HCT-116 (neutral red staining, 72 hours); assay type: cell-based
Protocol: as §1

[5] = system: Moser (human colorectal carcinoma) cells; test: in vitro cytotoxicity against Moser (neutral red staining, 72 hours); assay type: cell-based
Protocol: as §1

[6] = system: DNA synthesis in B16-F10 melanoma cells; test: inhibition of DNA synthesis in cultured B16-F10 melanoma cells; assay type: cell-based, murine
[7] = system: RNA synthesis in B16-F10 melanoma cells; test: inhibition of RNA synthesis in cultured B16-F10 melanoma cells; assay type: cell-based, murine; conditions: Mus musculus, 14C-uridine incorporation, 4 hours + 60 min
[8] = system: protein synthesis in B16-F10 melanoma cells; test: inhibition of protein synthesis in cultured B16-F10 melanoma cells; assay type: cell-based, murine
[9] = solubility; assay type: physicochemical
[10] = system: B16 melanoma; conditions: for T/C: Table 6, QD × 9; for inhibitory activity against experimental animal tumor systems: e.g. B16 melanoma in mice; for antitumor efficacy against B16 melanoma, in words: ip; for minimum effective dose relative to the parent compound: versus BU-3862T
Protocol: (§2) In vivo antitumor activities of BU-3862T and the diacetyl and dihydro derivatives were determined in tumor-bearing BDF1 or CDF1 mice. Male BDF1 mice were intraperitoneally inoculated with 0.5 ml of 10% melanotic melanoma B16 brei and female CDF1 mice were also intraperitoneally inoculated with 0.4 ml of diluted ascitic fluid containing 10^5 lymphoid leukemia L1210 cells or 10^6 lymphocytic leukemia P388 cells.

[11] = system: L1210 leukemia
Protocol: as §2

[12] = system: P388 leukemia; conditions: at the doses tested
Protocol: as §2

[13] = biological activity of BU-3862T derivatives
[14] = system: murine and human tumor cell lines
Protocol: as §1

[15] = B16-F10, 72 hours, read-out: IC50
[16] = HCT-116, 72 hours, read-out: IC50
[17] = Moser, 72 hours, read-out: IC50

## C=C(C)CC(NC(=O)[C@H](CO)NC(=O)CCCCC(C)C)C(=O)C1(CO)CO1 (some centres unmarked) [BU-3862T]
[1]; [15]
  IC50: 0.0017 µg/mL (≈ 0.00427 µM)
[2]
  IC50: 0.031 µg/mL (≈ 0.0778 µM)
[3]
  IC50: 0.01 µg/mL (≈ 0.0251 µM)
[4]; [16]
  IC50: 0.0097 µg/mL (≈ 0.0243 µM)
[5]; [17]
  IC50: 0.016 µg/mL (≈ 0.0402 µM)
[6]; DNA versus RNA synthesis
  potency on DNA synthesis relative to that on RNA synthesis in terms of IC50 value: over 100 times
[6]; Mus musculus, B16-F10, 3H-thymidine incorporation, 3.5 hours + 30 min
  IC50: 0.1 µg/mL
[7]
  IC50: 11 µg/mL
[8]; Mus musculus, B16-F10, 3H-leucine incorporation, 4 hours + 60 min
  IC50: 0.06 µg/mL
[8]; protein versus RNA synthesis
  potency on protein synthesis relative to that on RNA synthesis in terms of IC50 value: over 100 times
[9]; in benzene and other organic solvents
  solubility: practically insoluble
[9]; in dimethyl sulfoxide, dimethylformamide, methanol, ethanol, ethyl acetate and chloroform
  solubility: readily soluble
[9]; in water
  solubility: practically insoluble
[10]; Q4D × 3, ip
  potency (minimum effective dose) relative to mitomycin C: the same as that of mitomycin C
[10]; Q4D × 3 versus QD × 9
  chemotherapeutic index (ratio of optimal dose to minimum effective dose), intermittent versus consecutive dosing: broader therapeutic range
  maximum T/C value, intermittent versus consecutive dosing: better antitumor activity
[10]; 0.13 mg/kg/day ip
  T/C: 123%
[10]; 0.25 mg/kg/day ip
  T/C: 133%
[10]; 0.5 mg/kg/day ip
  T/C: 133%
[10]; 0.63 mg/kg/day (so in the source) ip
  T/C: 113%
[10]; 1.0 mg/kg/day ip
  T/C: 97%
[10]; 2.0 mg/kg/day ip
  T/C: Tox.
[10]
  inhibitory activity against experimental animal tumor systems: exhibit inhibitory activity
  antitumor efficacy against B16 melanoma, in words: excellent therapeutic efficacy against B16 melanoma
[11]; 0.25 mg/kg/day ip, Q3D × 3
  T/C: 119%
[11]; 1.0 mg/kg/day ip, Q3D × 3
  T/C: 125%
[11]; 2.0 mg/kg/day ip, Q3D × 3
  T/C: 144%
[11]; 4.0 mg/kg/day ip, Q3D × 3
  T/C: Tox.
[11]; L1210 leukemia, ip
  maximum T/C value: 145%
[11]; ip
  antitumor activity against L1210 leukemia, in words: moderate antitumor activity
[12]
  prolongation of lifespan in P388 leukemia-bearing mice: no significant prolongation of lifespan

## C=C(C)CC(NC(=O)[C@H](COC(C)=O)NC(=O)CCCCC(C)C)C(=O)C1(COC(C)=O)CO1 (some centres unmarked) [Diacetyl-BU-3862T]
[1]; [15]
  IC50: 0.003 µg/mL (≈ 0.00622 µM)
[4]; [16]
  IC50: 0.017 µg/mL (≈ 0.0352 µM)
[5]; [17]
  IC50: 0.044 µg/mL (≈ 0.0912 µM)
[13]
  biological activity, in words: retained the biological activity
[14]
  cytotoxic potency relative to BU-3862T: approximately half those of BU-3862T
[10]; Q4D × 3, ip
  minimum effective dose relative to the parent compound: approximately ten times less active than the parent compound
[10]
  inhibitory activity against experimental animal tumor systems: exhibit inhibitory activity
  antitumor efficacy against B16 melanoma, in words: significant anti-B16 melanoma activity

## CC(C)CCCCC(=O)N[C@@H](CO)C(=O)NC(CC(C)C)C(=O)C1(CO)CO1 (some centres unmarked) [Dihydro-BU-3862T]
[1]; [15]
  IC50: 0.0032 µg/mL (≈ 0.00799 µM)
[4]; [16]
  IC50: 0.013 µg/mL (≈ 0.0325 µM)
[5]; [17]
  IC50: 0.038 µg/mL (≈ 0.0949 µM)
[13]
  biological activity, in words: retained the biological activity
[14]
  cytotoxic potency relative to BU-3862T: approximately half those of BU-3862T
[10]; Q4D × 3, ip
  minimum effective dose relative to the parent compound: approximately ten times less active than the parent compound
[10]
  inhibitory activity against experimental animal tumor systems: exhibit inhibitory activity
  antitumor efficacy against B16 melanoma, in words: significant anti-B16 melanoma activity

## CO[C@@]12[C@H](COC(N)=O)C3=C(C(=O)C(C)=C(N)C3=O)N1C[C@@H]1N[C@@H]12 [Mitomycin C, reference compound]
[1]; B16-F10, 72 h
  IC50: 0.5 µg/mL (≈ 1.5 µM)
[4]; HCT-116, 72 h
  IC50: 0.8 µg/mL (≈ 2.39 µM)
[5]; 72 h
  IC50: 1.2 µg/mL (≈ 3.59 µM)
[11]; 0.25 mg/kg/day ip, QD × 3
  T/C: 125%
[11]; 0.5 mg/kg/day ip, QD × 3
  T/C: 131%
[11]; 1.0 mg/kg/day ip, QD × 3
  T/C: 138%
[11]; 2.0 mg/kg/day ip, QD × 3
  T/C: 163%

## CC(C)CCCCC(=O)N[C@@H](CO)C(=O)NC(CC(C)C)C(=O)C(CO)CO (some centres unmarked) [Tetrahydro-BU-3862T]
[1]; [15]
  IC50: 0.53 µg/mL (≈ 1.32 µM)
[4]; [16]
  IC50: > 1 µg/mL
[5]; [17]
  IC50: > 1 µg/mL
[13]
  biological activity, in words: devoid of the activity
[14]
  cytotoxic activity compared with BU-3862T, diacetyl and dihydro derivatives: significantly less active than the above compounds
